Broadly, the inhibition is the percentage by which the read-out fell short of the control.

For one assay, the target named is ABL1 (Homo sapiens, UniProt P00519). Description: SelectScreen Kinase Profiling. The settings on record: read-out: Mean inhibition at 10 μM of HVS (%). The format is biochemical.
Assay [1] concerns MDA-MB-231, MDA-MB-468, MCF-7 and BT-474 cells. The assay can be described thus: Growth of breast cancer cells without HGF, MTT assay. In kind it is cell-based, human. The settings on record: similar treatment doses; no HGF. As to the method: FIG. 3. (A) Effect of HVS treatment on HGF-stimulated growth of Met-dependent MDA-MB-231, MDA-MB-468, MCF-7. and BT-474 breast cancer cells after 72 h treatment period, compared to DMSO as vehicle control. Viable cell count was determined using MTT assay. Vertical bars indicate the mean cell count±SEM of N=3 in each treatment group; (−)-oleocanthal was used as a positive control at 20 μM. (B) Effect of HVS treatment on HGF-stimulated growth of Met-independent T-47D breast cancer cells after 72 h treatment period. Viable cell count was determined using MTT assay. Vertical bars indicate the mean cell count±SEM of N=3 in each treatment group. (C) Cytotoxic effects of HVS on the highly metastatic MDA-MB-231 breast cancer cells at two different concentrations (30 and 60 μM) using LDH cytotoxicity assay. Triton X-100 was used as a positive control to cause the breakdown of all the cells and induce the total possible LDH release. (D) Effects of HVS treatment on the viability of non-tumorigenic human MCF10A mammary epithelial cells after a 24 h treatment period, compared to DMSO as vehicle control. (E) As in panel (A) but without HGF. […] Viable cell count was determined using MTT assay. Vertical bars indicate the mean cell count±SEM of N=3 in each treatment group; doxorubicin was used as a positive control at 10 μM dose. *P<0.05 as compared with vehicle treated control.
[…]. […]
For orientation: Tetrazolium dyes change colour on reduction, which living cells bring about.

ABL1, sequence (P00519 whole entry): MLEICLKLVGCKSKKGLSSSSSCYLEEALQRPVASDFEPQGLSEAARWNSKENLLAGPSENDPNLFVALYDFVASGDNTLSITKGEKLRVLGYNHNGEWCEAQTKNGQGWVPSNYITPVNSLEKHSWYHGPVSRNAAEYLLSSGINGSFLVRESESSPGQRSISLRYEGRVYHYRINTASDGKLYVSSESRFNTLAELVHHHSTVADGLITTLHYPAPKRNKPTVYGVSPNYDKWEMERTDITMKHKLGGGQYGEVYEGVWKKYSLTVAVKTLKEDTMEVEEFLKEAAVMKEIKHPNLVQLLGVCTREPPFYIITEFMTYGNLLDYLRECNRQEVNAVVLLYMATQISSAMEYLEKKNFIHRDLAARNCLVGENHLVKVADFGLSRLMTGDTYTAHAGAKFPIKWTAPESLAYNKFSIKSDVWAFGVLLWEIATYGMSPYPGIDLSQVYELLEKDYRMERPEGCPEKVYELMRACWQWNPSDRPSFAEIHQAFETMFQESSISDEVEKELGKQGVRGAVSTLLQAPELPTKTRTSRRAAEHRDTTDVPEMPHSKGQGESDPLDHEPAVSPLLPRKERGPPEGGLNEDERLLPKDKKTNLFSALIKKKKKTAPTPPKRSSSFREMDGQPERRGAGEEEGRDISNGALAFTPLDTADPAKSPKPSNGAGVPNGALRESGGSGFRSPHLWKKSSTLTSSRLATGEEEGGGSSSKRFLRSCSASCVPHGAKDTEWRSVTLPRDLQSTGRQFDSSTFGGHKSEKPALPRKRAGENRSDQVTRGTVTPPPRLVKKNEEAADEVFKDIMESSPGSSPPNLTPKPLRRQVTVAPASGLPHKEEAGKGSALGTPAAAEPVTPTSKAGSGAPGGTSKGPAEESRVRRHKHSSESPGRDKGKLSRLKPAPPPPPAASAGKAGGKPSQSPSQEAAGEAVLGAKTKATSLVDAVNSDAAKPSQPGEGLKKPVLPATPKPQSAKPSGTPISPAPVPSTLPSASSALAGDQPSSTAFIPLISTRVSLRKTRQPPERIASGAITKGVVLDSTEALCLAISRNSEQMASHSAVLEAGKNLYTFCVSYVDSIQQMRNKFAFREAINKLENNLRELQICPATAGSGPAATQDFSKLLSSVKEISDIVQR

As to `COc1cc(CCOC(=O)/C=C/c2cc(OC)c(O)c(OC)c2)ccc1O` [Compound 8, (E)-4-hydroxy-3-methoxyph-ethyl 3-(4-hydroxy-3,5-dimethoxyphenyl) acrylate], on ABL1, the inhibition at 10 µM turned out to be 79%. Further, the “effect on growth in the absence of HGF” value in assay [1] is “no discernable effects”.
